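The compound was tested at five concentrations on cells cultured in 96-well plates, with a 48-hour exposure period. GI50: concentration for 50% inhibition of growth.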 Active and inactive are the calls of the source. Cut-off read from the data, not from the text of the source: active = GI50 up to about 1.1 µM and inactive = higher.
Key:
Test in all cases: DTP human tumour cell line panel, 48 h
[1] = test system: MDA-N
[2] = test system: Hs-578T
[3] = test system: ACHN
[4] = test system: SF-539
[5] = test system: OVCAR-3
[6] = test system: HCC 2998
[7] = test system: MDA-MB-231
[8] = test system: T47D
[9] = test system: NCI-H522
[10] = test system: A549
[11] = test system: SK-MEL-5
[12] = test system: 786-0
[13] = test system: OVCAR-5
[14] = test system: SR
[15] = test system: EKVX
[16] = test system: KM12
[17] = test system: HOP-92
[18] = test system: SNB-75
[19] = test system: UACC-62
[20] = test system: UO-31

| Compound | GI50 [1] | GI50 [2] | GI50 [3] | GI50 [4] | GI50 [5] | GI50 [6] | GI50 [7] | GI50 [8] | GI50 [9] | GI50 [10] | GI50 [11] | GI50 [12] | GI50 [13] | GI50 [14] | GI50 [15] | GI50 [16] | GI50 [17] | GI50 [18] | GI50 [19] | GI50 [20] |
| --- | --- | --- | --- | --- | --- | --- | --- | --- | --- | --- | --- | --- | --- | --- | --- | --- | --- | --- | --- | --- |
| Clc1cccc(Cl)c1/C=N/C12CC3CC(CC(C3)C1)C2 | > 10 µM (inactive) | > 10 µM (inactive) | > 10 µM (inactive) | > 10 µM (inactive) | > 10 µM (inactive) | > 10 µM (inactive) | > 10 µM (inactive) | > 10 µM (inactive) | > 10 µM (inactive) | > 10 µM (inactive) | > 10 µM (inactive) | > 10 µM (inactive) | > 10 µM (inactive) | 3.26 µM (inactive) | > 10 µM (inactive) | > 10 µM (inactive) | > 10 µM (inactive) | 6.47 µM (inactive) | > 10 µM (inactive) |  |
| CC1C(=NO)C(C)C(c2ccccc2)N(N=O)C1c1ccccc1 (stereo not drawn) | 20.1 µM (inactive) | 16.4 µM (inactive) | 20.2 µM (inactive) | 13.1 µM (inactive) | 25.2 µM (inactive) | 18.4 µM (inactive) | 16.1 µM (inactive) | 18.7 µM (inactive) | 14.7 µM (inactive) | 17.8 µM (inactive) | 18.9 µM (inactive) | 19.6 µM (inactive) |  | 15.5 µM (inactive) | 22.9 µM (inactive) | 16 µM (inactive) | 19.7 µM (inactive) | 25.1 µM (inactive) | 13.5 µM (inactive) | 13.3 µM (inactive) |
| O=C(O)CCc1ccc2c(c1)CC1(Cc3ccccc3C1)C2 | > 100 µM (inactive) | > 100 µM (inactive) | 58.5 µM (inactive) | > 100 µM (inactive) | > 100 µM (inactive) | > 100 µM (inactive) | > 100 µM (inactive) | > 100 µM (inactive) | > 100 µM (inactive) | > 100 µM (inactive) | > 100 µM (inactive) | > 100 µM (inactive) | > 100 µM (inactive) | 37.9 µM (inactive) | > 100 µM (inactive) | > 100 µM (inactive) | > 100 µM (inactive) | < 0.01 µM (active) | > 100 µM (inactive) | > 100 µM (inactive) |
| COc1cc2c(cc1O)C(c1cc(O)c(O)c(OC)c1)C(O)(C(=O)O)C(CO)C2O (stereo not drawn) | 16.6 µM (inactive) | > 100 µM (inactive) | > 100 µM (inactive) | > 100 µM (inactive) | > 100 µM (inactive) | > 100 µM (inactive) | 40.8 µM (inactive) | > 100 µM (inactive) | > 100 µM (inactive) | > 100 µM (inactive) | > 100 µM (inactive) | 16.1 µM (inactive) | > 100 µM (inactive) | 66.4 µM (inactive) | 20.7 µM (inactive) | > 100 µM (inactive) | > 100 µM (inactive) | > 100 µM (inactive) | > 100 µM (inactive) | > 100 µM (inactive) |
| CCC(=O)c1cc(C(=O)C(=S)SC)cc(C(=O)C(=S)SC)c1 | > 100 µM (inactive) | > 49.7 µM (inactive) | > 87.1 µM (inactive) | > 100 µM (inactive) | > 54.2 µM (inactive) | > 100 µM (inactive) | > 100 µM (inactive) | > 100 µM (inactive) | > 55.3 µM (inactive) | > 100 µM (inactive) | > 82.8 µM (inactive) | > 85.7 µM (inactive) | > 100 µM (inactive) | 11 µM (inactive) | > 100 µM (inactive) | > 100 µM (inactive) | > 59.7 µM (inactive) | > 100 µM (inactive) | > 100 µM (inactive) | 48.4 µM (inactive) |
| COC(=O)C(C)(NC(=O)C(CC(=O)OC(C)(C)C)NC(=O)OC(C)(C)C)c1ccccc1 (stereo not drawn) | > 100 µM (inactive) | > 100 µM (inactive) | > 100 µM (inactive) | > 100 µM (inactive) | 49.8 µM (inactive) | > 100 µM (inactive) | > 100 µM (inactive) | 35.4 µM (inactive) | > 100 µM (inactive) | > 100 µM (inactive) | 68.4 µM (inactive) | > 100 µM (inactive) | > 100 µM (inactive) | 73.5 µM (inactive) | > 100 µM (inactive) | > 100 µM (inactive) | 63 µM (inactive) | 8.13 µM (inactive) | > 100 µM (inactive) | 26.5 µM (inactive) |
| c1ccc2c(c1)nnn2C1CCCCO1 (stereo not drawn) | > 100 µM (inactive) | > 100 µM (inactive) | > 100 µM (inactive) | > 100 µM (inactive) | > 100 µM (inactive) | > 100 µM (inactive) | > 100 µM (inactive) | > 100 µM (inactive) | > 100 µM (inactive) | > 100 µM (inactive) | > 100 µM (inactive) | > 100 µM (inactive) | > 100 µM (inactive) | > 100 µM (inactive) | > 100 µM (inactive) | > 100 µM (inactive) | > 100 µM (inactive) | > 100 µM (inactive) | > 100 µM (inactive) | > 100 µM (inactive) |
| COc1cccc(N2C(=O)/C(=C\c3ccccc3)SC2c2cc(OC)c(OC)c(OC)c2)c1 (stereo not drawn) | 17.6 µM (inactive) | 30.4 µM (inactive) | > 100 µM (inactive) |  |  | 32.3 µM (inactive) | 98.2 µM (inactive) | 17.4 µM (inactive) | 22.2 µM (inactive) | 64.1 µM (inactive) | 42.9 µM (inactive) | 40.9 µM (inactive) | > 100 µM (inactive) | 26.3 µM (inactive) | 44.2 µM (inactive) | 36.5 µM (inactive) | 27.7 µM (inactive) | 18 µM (inactive) | 24.1 µM (inactive) | 43.2 µM (inactive) |
| O=[N+]([O-])c1ccc2c(c1)C1=NN(c3ccccc3)C(c3ccccc3Br)C1CCC2 (stereo not drawn) | 17.3 µM (inactive) | 48.1 µM (inactive) | 22.8 µM (inactive) | 19.1 µM (inactive) | 16.2 µM (inactive) | 21.9 µM (inactive) | 36.3 µM (inactive) | 10.2 µM (inactive) | 13.3 µM (inactive) | 28.1 µM (inactive) | 15.4 µM (inactive) | > 50 µM (inactive) | > 50 µM (inactive) | 4.05 µM (inactive) | 20.5 µM (inactive) | 16.9 µM (inactive) | 14.6 µM (inactive) | 42.8 µM (inactive) | 9.62 µM (inactive) | 20.6 µM (inactive) |
| CCOC(=O)[C@@H]1ON2O[C@H](OC3CCCC3(c3ccccc3)c3ccccc3)C[C@H]3OC(=O)[C@@H]1C32 (stereo partly drawn) | 43.3 µM (inactive) | 49.4 µM (inactive) | 65.5 µM (inactive) | 65 µM (inactive) | 40.9 µM (inactive) | 52.1 µM (inactive) | 36.6 µM (inactive) | 26.1 µM (inactive) | 36.4 µM (inactive) | 27.8 µM (inactive) | 75.9 µM (inactive) | 78 µM (inactive) | > 100 µM (inactive) | 33.7 µM (inactive) | > 100 µM (inactive) | 27.9 µM (inactive) | 95.7 µM (inactive) | 71.4 µM (inactive) | 27 µM (inactive) | 37.6 µM (inactive) |
| COc1ccccc1NC(=S)N/N=C(/c1ccccc1)c1ccccn1 | 0.229 µM (active) | 7.05 µM (inactive) | 0.0257 µM (active) | 1.37 µM (inactive) | < 0.0143 µM (active) | 5.97 µM (inactive) | 0.0214 µM (active) | < 0.0426 µM (active) | 0.499 µM (active) | 0.141 µM (active) | 0.0904 µM (active) | 0.103 µM (active) | 0.0635 µM (active) | < 0.0206 µM (active) | 0.0968 µM (active) | 0.151 µM (active) | 0.522 µM (active) | 0.998 µM (active) | 0.273 µM (active) | 0.2 µM (active) |
| N/N=C(/CC(O)(C(F)(F)F)C(F)(F)F)c1ccccc1 | > 10 µM (inactive) | > 10 µM (inactive) | > 10 µM (inactive) | > 10 µM (inactive) | 7.4 µM (inactive) | > 10 µM (inactive) | > 10 µM (inactive) | > 10 µM (inactive) | > 10 µM (inactive) | > 10 µM (inactive) | > 10 µM (inactive) | > 10 µM (inactive) | > 10 µM (inactive) | > 10 µM (inactive) | > 10 µM (inactive) | > 10 µM (inactive) | > 10 µM (inactive) | > 10 µM (inactive) | > 10 µM (inactive) |  |
| Clc1ccc(Cl)c(/N=N/c2cc3c4c(c2)CCCN4CCC3)c1 | > 10 µM (inactive) | > 10 µM (inactive) | > 10 µM (inactive) | > 10 µM (inactive) | > 10 µM (inactive) | > 10 µM (inactive) | > 10 µM (inactive) | > 10 µM (inactive) | > 10 µM (inactive) | > 10 µM (inactive) | > 10 µM (inactive) | > 10 µM (inactive) |  | > 10 µM (inactive) | > 10 µM (inactive) | > 10 µM (inactive) | > 10 µM (inactive) | > 10 µM (inactive) | > 10 µM (inactive) | > 10 µM (inactive) |
| CC(=O)OCC1=C(C)C[C@H]([C@@H](COC(C)=O)C2CCC3C4C[C@H]5O[C@]56CC=CC(=O)[C@]6(C)C4CC[C@@]32C)OC1=O (stereo partly drawn) | 0.175 µM (active) | 1 µM (active) | 0.302 µM (active) |  | 0.109 µM (active) | 0.573 µM (active) | 0.376 µM (active) | 0.353 µM (active) | 0.134 µM (active) | 1.39 µM (inactive) | 0.269 µM (active) | 0.19 µM (active) | 1.23 µM (inactive) | 0.005 µM (active) | 0.465 µM (active) | 0.138 µM (active) | 0.352 µM (active) | 2.16 µM (inactive) | 0.258 µM (active) | 0.993 µM (active) |
